Data published in US12268727B2, “Bioactive polypeptides for improvements in plant protection, growth and productivity” (priority 2017, dated 2025).
Where “and” joins values, the source holds several entries; their conditions need not be identical. Equal entries are not always repeated. Where two headings read alike, the source gives them in different places.

Tests used:
[1] = tested on: corn; assay type: in vivo; conditions: for Average Change in Yield (Bu/Ac) compared to Surfactant control / Average Yield Bu/Ac: foliar at V5, 2 IL locations with drought-like conditions, 16.7 μM; for yield advantage: third study, 10-11 sites
[2] = tested on: soybean; experiment: Foliar application to soybean, field yield trials; assay type: in vivo; conditions: for Average Bu/Ac Increase compared to Control Variety 1 and 2 / Average Total Yield Bu/Ac Variety 1 and 2 / Average Total Yield Bu/Ac Variety 2: foliar at R2, 7 US Midwest locations; for Average Total Yield Bu/Ac Variety 2: AG3536
[3] = tested on: peppers (Capsicum); experiment: Foliar application to pepper, yield; assay type: in vivo, pepper (Capsicum); conditions: for Avg. Percent Change Yield Total Weight (lbs/Ac) (Hungarian Hot Wax) 2 Replicate Trials / Avg. Percent Change Yield Total Weight (lbs/Ac) Red Knight 2 Replicate Trials / Combined Avg. Percent Change Yield Total Number (lbs/Ac) RK and HHW: foliar at first flower; for increase in average fruit weight per plant vs surfactant only: Jalapeno, pre-bloom; for combined yield average increase, RK and HHW varieties: first flower
Method: Foliar treatments of Bt.4Q7 Flg22 and Ec.Flg22 bioactive priming polypeptides were applied using small scale plots designed to simulate commercial growing conditions for peppers (Capsicum). Two varieties of pepper: Red Knight (RK) and Hungarian Hot Wax (HHW) were grown from 6-week old transplants in raised beds covered with black plastic mulch that had good water-holding characteristics and a pH of 5.8-6.6. Plants were grown using drip irrigation and fertilizer applied following grower guidelines throughout the growing season to ensure optimum plant growth and yields. Small raised bed plots were designed to simulate the planting densities used by commercial growers that generally plant approximately 10,000-14,000 plants per acre in double rows 14-18 inches (35.6 to 46 cm) apart on plastic mulched beds with 16-24 inches (40.6 to 61 cm) between plants in the row and with the beds spaced 5.0-6.5 feet ([…]) apart from their centers. A single row of peppers also can be planted on each bed (5,000-6,500 plants per acre or 12,355-16,062 plants per hectare).
Effects of the foliar applications on pepper yield were determined for two separate harvests using a once over harvest approach and normalized to the yield of the control plants. The average percentage change in yield for each treatment over the yield for the control plants is reported as pounds/acre (lbs/Ac) in Table 29.
Foliar treatment of Gm.RHPP (SEQ ID NO: 600) was applied as an exogenous spray at the first-bloom stage to increase yield in two pepper varieties. Foliar treatment of Gm.RHPP was applied using small scale plots designed to simulate commercial growing conditions for peppers (Capsicum) as described in Example 13. Foliar applications with the Gm.RHPP bioactive priming polypeptide were applied at the first flower stage, on two varieties of pepper, Red Knight (RK) and Hungarian Hot Wax (HHW). […] Effects of the foliar applications on pepper yield were determined for two separate harvests using a once over harvest approach and normalized to the yield of the control plants. The average percentage change in yield over the yield for the control plants is reported in Table 42, as the percent change per total weight (lbs/Ac) of peppers harvested. Average percent change in yield is reported for the 2 replicate harvests (trials) for the RK and HHW pepper varieties and then as a combined average for both varieties.
Small-scale plots were designed to simulate commercial growing conditions for jalapeno peppers. Peppers were grown for 12-weeks in a controlled growth room and then transplanted outside in 2 raised beds covered with black plastic mulch that had good water-holding characteristics and in soil having a pH of 5.8-6.6. Jalapeno pepper plants were spaced 14-16 inches (38 cm) apart with 16-24 inches (50 cm) between plants containing approximately 25 plants per row bed. Plants were grown using drip irrigation and fertilizer applied following grower guidelines throughout the growing season to provide optimum conditions for plant growth. The raised bed plots were designed to simulate the planting densities used by commercial growers that generally plant approximately plants per acre (5,000-6,500 plants per acre or 12,355-16,062 plants per hectare) in double rows 35.6-45.7 cm apart with the beds spaced 5.0-6.5 feet (1.52-1.98 meters) apart from their centers (Orzolek et al., “Agricultural Alternatives: Pepper Production.” University Park: Penn State Extension, 2010).

[4] = tested on: squash; experiment: Foliar application to squash, yield; assay type: in vivo; conditions: Crookneck squash; Bt.4Q7Flg22 2.0 Fl. oz/Ac, Gm.RHPP 3.2 Fl. oz/Ac
Description: Formulation 2 (F2) consists of the D RI Bt.4Q7 Flg22 applied with 0.01% (wv) non-ionic surfactant. […] Yield comparisons were made between the plants treated with the foliar Bt.4Q7Flg22 F1 and F2 spray applications compared to the control (water) or non-treated squash plants. Squash plants were cultivated in sandy loam soil as follows. 2.5 cm holes were cut in 2.5 ft. (0.76 m) wide plastic covered mounds, two rows per mound, holes spaced 1.5 ft (0.46 m) apart within each row. Rows were staggered within the mound. Mounds were spaced 4 ft (1.2 m) apart. Three squash seeds were planted per hole and thinned to a single plant per hole 14 days after planting. Drip irrigation tubing was laid in the center of each mound, and plants were watered as necessary.
Squash plants were grown from seed in raised beds until bloom, and foliar treated in the same Florida (FL) location using two replicated trials or two separate harvests. Yield for the foliar Bt.4Q7Flg22 applied F1 and F2 treated plants is reported as the number of squash per plant, the weight (grams) per squash and the total squash yield (lbs/Ac) and represented as a percentage change as compared to non-treated control plants (Table 31).
Yield comparisons were made between the plants treated with the polypeptides compared to surfactant only control plants, with three replicates per treatment. […] Replicates with average yield per plant 50% above or 50% below the median yield for the trial were excluded as outliers.
Squash plants were cultivated in sandy loam soil as follows. 2.5 cm holes were cut in 0.76 meters wide plastic covered mounds, two rows per mound, holes spaced 0.46 meters apart within each row. Rows were staggered within the mound. Mounds were spaced 1.2 meters apart. Three squash seeds were planted per hole and thinned to a single plant per hole 14 days after planting. Drip irrigation tubing was laid in the center of each mound, and plants were watered as necessary.

[5] = tested on: soybean; experiment: Foliar application to soybean, field yield trials; assay type: in vivo; conditions: foliar at R2, AG2836, 7 US Midwest locations
[6] = combined average of two corn hybrids, two years
[7] = foliar 0.33 Fl. oz/Ac, V5-V8, first year trials, 10 locations
[8] = foliar 0.33 Fl. oz/Ac, V8 corn Dekalb 5064, second year trials

Bt.4Q7Flg22: Flg22 polypeptide (22 amino acids) from flagellin of Bacillus thuringiensis strain 4Q7 (DRLSSGKRINSASDDAAGLAIA; listed as Bacillus thuringiensis)
average yield change vs STRATEGO YLD fungicide alone ([1]; V5 corn, 2 hybrids, 2 locations Iowa, applied with STRATEGO YLD 4.0 Fl. oz/Ac): 5.50 Bu/Ac | increase in yield vs base seed treatment + surfactant control ([1]; V5 corn, 3 DEKALB hybrids, 6-8 locations, 4.0 Fl. oz/Ac): 1.14 Bu/Ac | yield increase over non-treated control ([1]; V8 corn Dekalb 5064, 6 locations, Bt.4Q7Flg22 0.33 Fl. oz/Ac, STRATEGO YLD 4.0 Fl. oz/Ac): 4.84 Bu/Ac | 2-year average yield increase [1, 6]: 8.0 Bu/Ac | win rate, multiple year [1, 6]: 86% | yield increase over surfactant control ([1]; drought-like conditions, 2 hybrids, 2 IL locations, 16.7 μM at 4.0 Fl. oz/Ac, cellobiose 320 mM where combined): 3.70 Bu/Ac | yield increase over control ([1]; drought-like conditions, V5-V7, highest use rate): ~27 Bu/Ac | average yield increase vs non-treated control [1, 7]: 11.60 Bu/Ac and > 11 Bu/Ac | win rate [1, 7]: 90% | average yield increase over control [1, 8]: 4.8 Bu/Ac and ~5 Bu/Ac | win rate [1, 8]: 83% | Average Change in Yield (Bu/Ac) compared to Surfactant control ([1]; 2 hybrids, 4.0 Fl. oz/Ac): +3.70 Bu/Ac | Average Yield Bu/Ac ([1]; 2 hybrids, 4.0 Fl. oz/Ac): 96.46 Bu/Ac | Average Change in Yield (Bu/Ac) compared to Surfactant control ([1]; 2 hybrids, 48.0 Fl. oz/Ac): +26.61 Bu/Ac | Average Yield Bu/Ac ([1]; 2 hybrids, 48.0 Fl. oz/Ac): 119.37 Bu/Ac | Average Total Yield Bu/Ac (6 locations) ([1]; foliar at V8, corn hybrid Dekalb 5064, Bt.4Q7Flg22 0.33 Fl. oz/Ac, STRATEGO YLD 4.0 Fl. oz/Ac): 192.21 Bu/Ac | Average Bu/Ac Increase compared to Control ([1]; foliar at V8, corn hybrid Dekalb 5064, Bt.4Q7Flg22 0.33 Fl. oz/Ac, STRATEGO YLD 4.0 Fl. oz/Ac, 6 locations): +4.84 Bu/Ac | yield advantage ([1]; V5-V8, 0.33 Fl. oz/Ac (25 nM)): 5.75 Bu/Ac | yield advantage ([1]; V5-V8, 4 Fl. oz/Ac (300 nM)): 3.77 Bu/Ac | yield advantage ([1]; V5-V8, 8 Fl. oz/Ac (600 nM)): 5.05 Bu/Ac | win rate ([2]; R2 foliar 0.33 Fl. oz/Ac, 11 locations): 64% | yield advantage ([2]; R2 foliar, 8 Fl. oz/Ac, 11 sites): 0.88 Bu/Ac | average yield change vs non-treated control ([2]; R2 foliar, 11 locations, Flg22 polypeptides 0.33 Fl. oz/Ac, RHPP 4 Fl. oz/Ac): −0.1 Bu/Ac | Average Bu/Ac Increase compared to Control Variety 1 and 2 ([2]; use rate 0.33 Fl. oz/Ac): +0.45 Bu/Ac | Average Total Yield Bu/Ac Variety 1 and 2 ([2]; use rate 0.33 Fl. oz/Ac): 61.02 Bu/Ac | Average Bu/Ac Increase compared to Control Variety 1 and 2 ([2]; use rate 4.0 Fl. oz/Ac): +0.33 Bu/Ac | Average Total Yield Bu/Ac Variety 1 and 2 ([2]; use rate 4.0 Fl. oz/Ac): 60.90 Bu/Ac | Average Bu/Ac Increase compared to Control Variety 1 and 2 ([2]; use rate 8.0 Fl. oz/Ac): +0.88 Bu/Ac | Average Total Yield Bu/Ac Variety 1 and 2 ([2]; use rate 8.0 Fl. oz/Ac): 61.45 Bu/Ac | Average Total Yield Bu/Ac Variety 2 ([2]; use rate 0.33 Fl. oz/Ac): 61.61 Bu/Ac | Average Total Yield Bu/Ac Variety 2 ([2]; use rate 4.0 Fl. oz/Ac): 64.19 Bu/Ac | Average Total Yield Bu/Ac Variety 2 ([2]; use rate 8.0 Fl. oz/Ac): 63.86 Bu/Ac | Avg. Percent Change Yield Total Weight (lbs/Ac) (Hungarian Hot Wax) 2 Replicate Trials ([3]; 1 Fl. oz/Ac): +77% | Avg. Percent Change Yield Total Weight (lbs/Ac) Red Knight 2 Replicate Trials ([3]; 1 Fl. oz/Ac): +29% | Combined Avg. Percent Change Yield Total Number (lbs/Ac) RK and HHW ([3]; 1 Fl. oz/Ac): +53% | Avg. Percent Change Yield Total Weight (lbs/Ac) (Hungarian Hot Wax) 2 Replicate Trials ([3]; 20 Fl. oz/Ac): +42% | Avg. Percent Change Yield Total Weight (lbs/Ac) Red Knight 2 Replicate Trials ([3]; 20 Fl. oz/Ac): +8% | Combined Avg. Percent Change Yield Total Number (lbs/Ac) RK and HHW ([3]; 20 Fl. oz/Ac): +25% | increase in average fruit weight per plant vs surfactant only ([3]; 4 Fl. oz/Ac): 40% | increase in average fruit weight per plant vs surfactant only ([3]; Bt.4Q7Flg22 2 Fl. oz/Ac, Gm.RHPP 3.2 Fl. oz/Ac): 49% | combined yield average increase, RK and HHW varieties ([3]; high rate 20 Fl. oz/Ac): 25% | combined yield average increase, RK and HHW varieties ([3]; low rate 1 Fl. oz/Ac): 53% | yield increase over control, HHW variety ([3]; high rate 20 Fl. oz/Ac): 42% | yield increase over control, HHW variety ([3]; low rate 1 Fl. oz/Ac): 77% and 72% | change in fruit weight vs surfactant only control [4]: 4.4% | increase in weight of harvested squash fruit per plant [4]: 31.7 grams | Average Total Yield Bu/Ac Variety 1 ([5]; use rate 0.33 Fl. oz/Ac): 60.33 Bu/Ac | Average Total Yield Bu/Ac Variety 1 ([5]; use rate 4.0 Fl. oz/Ac): 57.61 Bu/Ac | Average Total Yield Bu/Ac Variety 1 ([5]; use rate 8.0 Fl. oz/Ac): 59.05 Bu/Ac
